{
  "source": "patent US20240207458A1",
  "about": "“TARGETED ALPHA PARTICLE THERAPY FOR SOMATOSTATIN RECEPTOR 2 POSITIVE NEUROENDOCRINE TUMORS AND METASTASES” (H. LEE MOFFITT CANCER CENTER AND RESEARCH INSTITUTE, INC., priority 2021, published 2024)",
  "key": {"[1]": {"assay": "Log D7.4, miniaturized shake flask assay (n-octanol/PBS pH 7.4)", "assay_type": "physicochemical", "details": "for Log D7.4 of La^3+ chelate: La3+ chelate, n-octanol/PBS; for LogD7.4: metal chelate as named (Eu or La)", "protocol": "Log D7.4 measurements of the La^3+-labeled derivatives: The octanol-water partition coefficients at pH7.4 (LogD7.4) of DOTA-linker-TATE derivatives were determined using the miniaturized shake flask assay (Table 1). Briefly, 1:1 n-octanol (HPLC grade) was added to the solution of the test compound in PBS buffer (NaH2PO4/Na2HPO4 buffer, pH 7.4). The mixture was well mixed and then two layers were separated by centrifuge. The concentrations of compound in each layer were determined by HPLC."}, "[2]": {"details": "225Ac chelate, non-tumor bearing BALB/c mice", "description": "BD of ^225Ac-DOTA-linker-TATE derivatives in non-tumor bearing BALB/c mice: The biodistribution studies for all 5 compounds were conducted (FIG. 4 and Table 1)."}, "[3]": {"assay": "in vitro", "assay_type": "in vitro ADME", "details": "human, plasma", "protocol": "The compound was >95% intact after 5 days incubation."}, "[4]": {"parameters": "species or system BALB/c mice", "details": "mouse, in vivo", "protocol": "(§1) Non-tumor bearing BALB/c mice were tested for toxicity and BD. […] RD was calculated using the BD data.\n(§2) RD calculations determined pharmacokinetics parameters and absorbed α-emission dosages from ^225Ac and its daughters."}, "[5]": {"details": "mouse, in vivo", "protocol": "as §1, §2"}, "[6]": {"biological_target": "T1, SSTR2 receptor (Homo sapiens, UniProt P30874)", "T1 construct": "expressed in transfected cells; host or cells: Hek293/SSTR2 cells", "T1 sequence (P30874 whole entry)": "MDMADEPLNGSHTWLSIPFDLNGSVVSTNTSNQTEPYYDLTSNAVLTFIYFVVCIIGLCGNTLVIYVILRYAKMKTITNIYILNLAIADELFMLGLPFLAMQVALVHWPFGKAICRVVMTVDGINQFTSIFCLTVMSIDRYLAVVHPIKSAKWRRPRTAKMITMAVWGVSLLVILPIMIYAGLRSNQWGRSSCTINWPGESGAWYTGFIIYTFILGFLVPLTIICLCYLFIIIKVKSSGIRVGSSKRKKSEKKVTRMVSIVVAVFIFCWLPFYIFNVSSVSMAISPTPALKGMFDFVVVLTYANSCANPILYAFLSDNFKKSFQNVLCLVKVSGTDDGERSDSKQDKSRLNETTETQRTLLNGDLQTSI", "assay": "whole-cell competition binding assay with Eu-DOTATATE as competing ligand (Hek293/SSTR2 cells)", "details": "FIGS. 5 and 6", "protocol": "Competition curves were analyzed with GraphPad Prism software using the sigmoidal dose-response (variable slope) classical equation for nonlinear regression analysis."}},
  "note": "Bridge positions count the residues as written; N and C are the ends. Square brackets hold non-standard residues; d marks the D form. Peptide text beside a SMILES is read from it. * marks the point of attachment. DOTA = O=C(O)CN1CCN(CC(=O)O)CCN(CC(=O)*)CCN(CC(=O)O)CC1",
  "data": [
    {"compound": "C[C@@H](O)[C@H](NC(=O)[C@@H]1CSSC[C@H](NC(=O)[C@@H](Cc2ccccc2)NC(=O)[C@@H](CCC(=O)O)NC(=O)[C@@H](CCCCN)NC(=O)CN2CCN(CC(=O)O)CCN(CC(=O)O)CCN(CC(=O)O)CC2)C(=O)N[C@@H](Cc2ccc(O)cc2)C(=O)N[C@H](Cc2c[nH]c3ccccc23)C(=O)N[C@@H](CCCCN)C(=O)N[C@@H]([C@@H](C)O)C(=O)N1)C(=O)O", "note": "[Compound 11, La-DOTA-D-Lys-D-Glu-TATE] ({DOTA}-[dK][dE][dF]CY[dW]KTCT-OH; disulfide 4-9)", "values": [
      {"measurement": "Log D7.4 of La^3+ chelate", "setting": "[1]", "value": "−3.10"},
      {"measurement": "LogD7.4", "setting": "[1]", "value": "−3.10"}
    ]},
    {"compound": "DOTA-D-Lys-D-Glu-TATE [Compound 5]", "values": [
      {"measurement": "Kidney/Liver uptake ratio (24 h)", "setting": "[2]", "value": 87.6}
    ]},
    {"compound": "C[C@@H](O)[C@H](NC(=O)[C@@H]1CSSC[C@H](NC(=O)[C@@H](Cc2ccccc2)NC(=O)CCCCCNC(=O)CN2CCN(CC(=O)O)CCN(CC(=O)O)CCN(CC(=O)O)CC2)C(=O)N[C@@H](Cc2ccc(O)cc2)C(=O)N[C@H](Cc2c[nH]c3ccccc23)C(=O)N[C@@H](CCCCN)C(=O)N[C@@H]([C@@H](C)O)C(=O)N1)C(=O)O", "note": "[Compound 2, DOTA-Ahx-TATE]", "values": [
      {"measurement": "Kidney/Liver uptake ratio (24 h)", "setting": "[2]", "value": 5.3}
    ]},
    {"compound": "C[C@@H](O)[C@H](NC(=O)[C@@H]1CSSC[C@H](NC(=O)[C@@H](Cc2ccccc2)NC(=O)CN2CCN(CC(=O)O)CCN(CC(=O)O)CCN(CC(=O)O)CC2)C(=O)N[C@@H](Cc2ccc(O)cc2)C(=O)N[C@H](Cc2c[nH]c3ccccc23)C(=O)N[C@@H](CCCCN)C(=O)N[C@@H]([C@@H](C)O)C(=O)N1)C(=O)O", "note": "[Compound 1, DOTA-TATE, reference compound]", "values": [
      {"measurement": "Kidney/Liver uptake ratio (24 h)", "setting": "[2]", "value": 3.6}
    ]},
    {"compound": "C[C@@H](O)[C@H](NC(=O)[C@@H]1CSSC[C@H](NC(=O)[C@@H](Cc2ccccc2)NC(=O)[C@@H](CCCCN)NC(=O)[C@@H](CCCCN)NC(=O)CN2CCN(CC(=O)O)CCN(CC(=O)O)CCN(CC(=O)O)CC2)C(=O)N[C@@H](Cc2ccc(O)cc2)C(=O)N[C@H](Cc2c[nH]c3ccccc23)C(=O)N[C@@H](CCCCN)C(=O)N[C@@H]([C@@H](C)O)C(=O)N1)C(=O)O", "note": "[Compound 4, DOTA-di-D-Lys-TATE]", "values": [
      {"measurement": "Kidney/Liver uptake ratio (24 h)", "setting": "[2]", "value": 89.6}
    ]},
    {"compound": "C[C@@H](O)[C@H](NC(=O)[C@@H]1CSSC[C@H](NC(=O)[C@@H](Cc2ccccc2)NC(=O)CN2CCN(CC(=O)O)CCN(CC(=O)O)CCN(CC(=O)O)CC2)C(=O)N[C@@H](Cc2ccc(O)cc2)C(=O)N[C@H](Cc2c[nH]c3ccccc23)C(=O)N[C@@H](CCCCN)C(=O)N[C@@H]([C@@H](C)O)C(=O)N1)C(=O)O", "note": "[^225Ac-DOTATATE, metal not drawn]", "values": [
      {"measurement": "remaining at 120 h", "setting": "[3]", "value": "96.7 ± 2.06", "unit": "%"},
      {"measurement": "% Intact TLC scanner", "setting": "[3]; 24 h", "value": "100.44 ± 0.88", "unit": "%"},
      {"measurement": "% Intact TLC scanner", "setting": "[3]; 72 h", "value": "99.27 ± 0.29", "unit": "%"},
      {"measurement": "% Intact TLC scanner", "setting": "[3]; 168 h", "value": "93.19 ± 1.50", "unit": "%"},
      {"measurement": "% Intact TLC scanner", "setting": "[3]; 240 h", "value": "90.29 ± 4.00", "unit": "%"},
      {"measurement": "primary route of elimination", "setting": "[4]", "value": "renal route"},
      {"measurement": "appearance / indications of toxicity", "setting": "[5]", "value": "no indications of toxicity"}
    ]},
    {"compound": "Eu-DOTA-TATE [Compound 6, reference compound]", "values": [
      {"measurement": "LogD7.4", "setting": "[1]", "value": "−2.80"}
    ]},
    {"compound": "C[C@@H](O)[C@H](NC(=O)[C@@H]1CSSC[C@H](NC(=O)[C@@H](Cc2ccccc2)NC(=O)[C@@H](CCCCN)NC(=O)[C@@H](CCCCN)NC(=O)CN2CCN(CC(=O)O)CCN(CC(=O)O)CCN(CC(=O)O)CC2)C(=O)N[C@@H](Cc2ccc(O)cc2)C(=O)N[C@H](Cc2c[nH]c3ccccc23)C(=O)N[C@@H](CCCCN)C(=O)N[C@@H]([C@@H](C)O)C(=O)N1)C(=O)O", "note": "[Compound 10, La-DOTA-D-Lys-D-Lys-TATE]", "values": [
      {"measurement": "Log D7.4 of La^3+ chelate", "setting": "[1]", "value": "−3.28"},
      {"measurement": "LogD7.4", "setting": "[1]", "value": "−3.28"}
    ]},
    {"compound": "CC(C)C[C@@H](NC(=O)[C@@H](Cc1ccccc1)NC(=O)CN1CCN2CCN3CCN(CC1)CC(=O)[O][139La]([O]C(=O)C2)[O]C(=O)C3)C(=O)N[C@H](Cc1ccccc1)C(=O)N[C@H]1CSSC[C@@H](C(=O)N[C@H](C(=O)O)[C@@H](C)O)NC(=O)[C@H]([C@@H](C)O)NC(=O)[C@H](CCCCN)NC(=O)[C@@H](Cc2c[nH]c3ccccc23)NC(=O)[C@H](Cc2ccc(O)cc2)NC1=O", "note": "[Compound 15, 139La-DOTA-D-Phe-D-Leu-TATE]", "values": [
      {"measurement": "binding affinity for the SSTR2 receptor", "setting": "[6]", "value": "high binding affinity (low nM Ki)"}
    ]},
    {"compound": "C[C@@H](NC(=O)[C@@H](Cc1ccccc1)NC(=O)CN1CCN2CCN3CCN(CC1)CC(=O)[O][139La]([O]C(=O)C2)[O]C(=O)C3)C(=O)N[C@H](Cc1ccccc1)C(=O)N[C@H]1CSSC[C@@H](C(=O)N[C@H](C(=O)O)[C@@H](C)O)NC(=O)[C@H]([C@@H](C)O)NC(=O)[C@H](CCCCN)NC(=O)[C@@H](Cc2c[nH]c3ccccc23)NC(=O)[C@H](Cc2ccc(O)cc2)NC1=O", "note": "[Compound 14, 139La-DOTA-D-Phe-D-Ala-TATE]", "values": [
      {"measurement": "binding affinity for the SSTR2 receptor", "setting": "[6]", "value": "high binding affinity (low nM Ki)"}
    ]},
    {"compound": "C[C@@H](O)[C@H](NC(=O)[C@@H]1CSSC[C@H](NC(=O)[C@@H](Cc2ccccc2)NC(=O)[C@@H](CCC(=O)O)NC(=O)[C@@H](CCC(=O)O)NC(=O)CN2CCN(CC(=O)O)CCN(CC(=O)O)CCN(CC(=O)O)CC2)C(=O)N[C@@H](Cc2ccc(O)cc2)C(=O)N[C@H](Cc2c[nH]c3ccccc23)C(=O)N[C@@H](CCCCN)C(=O)N[C@@H]([C@@H](C)O)C(=O)N1)C(=O)O", "note": "[Compound 3, DOTA-di-D-Glu-TATE]", "values": [
      {"measurement": "Kidney/Liver uptake ratio (24 h)", "setting": "[2]", "value": 16.5}
    ]}
  ]
}
